This experiment has as its target T1, MerTK (Homo sapiens, UniProt Q12866).
T1 construct: endogenous in cells; host or cells: Jurkat cells
T1 sequence (Q12866 21-999): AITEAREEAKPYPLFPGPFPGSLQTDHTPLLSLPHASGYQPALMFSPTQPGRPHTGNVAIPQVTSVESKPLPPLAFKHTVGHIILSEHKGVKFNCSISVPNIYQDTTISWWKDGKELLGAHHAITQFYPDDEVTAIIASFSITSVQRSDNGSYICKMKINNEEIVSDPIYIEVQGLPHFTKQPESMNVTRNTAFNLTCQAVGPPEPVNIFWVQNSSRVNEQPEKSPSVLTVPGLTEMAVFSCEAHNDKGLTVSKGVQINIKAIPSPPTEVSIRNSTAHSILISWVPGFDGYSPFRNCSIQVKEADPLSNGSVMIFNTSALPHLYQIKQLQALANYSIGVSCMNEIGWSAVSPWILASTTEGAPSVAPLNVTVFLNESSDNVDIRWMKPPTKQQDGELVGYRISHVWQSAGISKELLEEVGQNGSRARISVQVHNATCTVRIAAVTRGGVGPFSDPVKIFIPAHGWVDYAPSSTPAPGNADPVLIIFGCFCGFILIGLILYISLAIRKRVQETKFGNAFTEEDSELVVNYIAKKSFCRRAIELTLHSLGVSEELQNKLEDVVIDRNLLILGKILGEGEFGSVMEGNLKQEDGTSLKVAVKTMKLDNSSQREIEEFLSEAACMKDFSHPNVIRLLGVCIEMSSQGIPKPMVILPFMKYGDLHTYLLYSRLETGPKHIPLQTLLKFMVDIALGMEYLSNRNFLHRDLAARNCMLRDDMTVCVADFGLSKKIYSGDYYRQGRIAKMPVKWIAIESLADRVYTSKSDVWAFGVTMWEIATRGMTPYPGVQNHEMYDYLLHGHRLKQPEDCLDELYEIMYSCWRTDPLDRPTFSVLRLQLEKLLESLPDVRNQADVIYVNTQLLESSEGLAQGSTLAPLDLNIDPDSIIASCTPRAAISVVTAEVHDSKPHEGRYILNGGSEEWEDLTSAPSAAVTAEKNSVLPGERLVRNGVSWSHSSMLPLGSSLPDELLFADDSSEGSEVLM
The experiment in a line: MerTk degradation in Jurkat cells (Western blot). The experiment is classed as cell-based. Conditions: Jurkat, 4 h, 0.001-1 μM, 4 hour-incubation at 37° C., read-out: Jurkat Max % MerTK Degradation. The procedure: Compounds were reconstituted in DMSO to make 10 mM stock solutions. […] Cells were seeded into 6-well plates with about 5×10^6 cells per well. 2 μL of diluted compounds were added to cells to the final concentration of 0.001-1 μM. After a 4 hour-incubation at 37° C., cells were collected into 2 mL Eppendorf tubes and centrifuged at 1,000 rpm for 5 min. The cell pellets were washed with DPBS (1×) once and resuspended in 60 μL RIPA lysis buffer with Halt Protease and Phophatase Inhibitor Cocktail. The cells were lysed on ice for 10 min, then centrifuged at 14,000 rpm for 10 min at 4° C. and the supernatants were collected for western blots.
The protein concentration of cell lysates was quantified with Pierce™ BCA Protein Assay Kit. […] BCA working reagents were prepared by mixing BCA reagent A with reagent B in 50: 1 ratio. 200 μL of the BCA working reagents were added to 25 μL of BCA standard or cell lysates in microplate, and mixed thoroughly on a plate shaker for 30 seconds. After incubation at 37° C. for 30 min, the absorbance of samples at 562 nm were measured with EnVision Plate Reader.
Protein lysates were prepared in NuPAGE™ LDS sample buffer and NuPAGE™ sample reducing agent, and incubated at 95° C. for 5 min. […] The proteins were transferred to low fluorescence PVDF membranes using the Trans-Blot Turbo Transfer System. Membranes were then blocked in Odyssey blocking buffer at RT for 1 h followed by primary incubation at 4° C. overnight. The primary antibodies were MerTK rabbit monoclonal antibody and actin mouse monoclonal antibody. Membranes were washed three times with TBST (1×), and then incubated with IR Dye 800 CW Goat anti-rabbit and IR Dye 700 CW Goat anti-mouse secondary antibodies in 1:10,000 dilution at RT for 1 h. The Western blot images were obtained using Odyssey Imaging System.

With `CCC[C@@H](C)Nc1ncc2c(n1)n([C@H]1CC[C@H](O)CC1)cc2[C@H]1CC[C@@H](CN2CCN(CCCO[C@H]3CCN(Cc4ccc5c(c4)n(C)c(=O)n5C4CCC(=O)NC4=O)C3)CC2)CC1` (stereo partly drawn) [I-219, 3-(3-methyl-2-oxo-5-[[(3S)-3-[3-(4-[[trans-4-[2-[(2S)-pentan-2-ylamino]-7-[trans-4-hydroxycyclohexyl]pyrrolo[2,3-d]pyrimidin-5-yl]cyclohexyl]methyl]piperazin-1-y1)propoxy]pyrrolidin-1-yl]methyl]-1,3-benzodiazol-1-yl)piperidine-2,6-dione; tris(formic acid)], the Dmax was greater than 50%.

For `CCCCNc1ncc2c(-c3ccc(CN4CCN(CCOCCOCCOCCOCCNc5ccc6c(c5)n(C)c(=O)n6[C@H]5CCC(=O)NC5=O)CC4)cc3)cn([C@H]3CC[C@H](O)CC3)c2n1` [I-61, 3-(5-[15-[4-([4-[2-(butylamino)-7-[trans-4-hydroxycyclohexyl]-7H-pyrrolo[2,3-d]pyrimidin-5-yl]phenyl]methyl)piperazin-1-y1]-4,7,10,13-tetraoxa-1-azapentadecan-1-y1]-3-methyl-2-oxo-2,3-dihydro-1H-1,3-benzodiazol-1-y1)piperidine-2,6-dione; bis(formic acid)], the Dmax is greater than 50%.

Take `CC(O)c1ccc2c(c1)n(C)c(=O)n2C1CCC(=O)NC1=O` (stereo not shown) [I-236]: the Dmax was greater than 50%.

Consider `CN1CCN(Cc2ccc(-c3ccc(CO[C@H]4CCC[C@@H]4NC(=O)c4cc(-c5cnn(CCOCCOCCCc6ccc7c(c6)n(C)c(=O)n7C6CCC(=O)NC6=O)c5)cnc4N)cc3)cc2)CC1` (stereo partly drawn) [I-182, 2-Amino-5-(1-[2-(2-[3-[1-(2,6-dioxopiperidin-3-yl)-3-methyl-2-oxo-1,3-benzodiazol-5-yl]propoxy]ethoxy)ethyl]pyrazol-4-yl]-N-[(1S,2S)-2-([4-[(4-methylpiperazin-1-yl)methyl]-[1,1-biphenyl]-4-yl]methoxy)cyclopentyl]pyridine-3-carboxamide], for which the Dmax is 20 to 50%.

In the case of `O=C1CC[C@H](n2c3cccc(CCCOCCOCCN4CCN(Cc5ccc(-c6cn([C@H]7CC[C@H](O)CC7)c7nc(NCCC(F)(F)F)ncc67)cc5)CC4)c3c3cccnc32)C(=O)N1` [I-134, 3-(5-[3-[2-(2-[4-[(4-[7-[trans-4-hydroxycyclohexy1]-2-[(3,3,3-trifluoropropyl)amino]pyrrolo[2,3-d]pyrimidin-5-yl]phenyl)methyl]piperazin-1-yl]ethoxy)ethoxy]propyl]pyrido[2,3-b]indol-9-y1)piperidine-2,6-dione], the Dmax was greater than 50%.

With `Cn1c(=O)n([C@H]2CCC(=O)NC2=O)c2ccc(CN3CC(OCCN4CCN(Cc5ccc(-c6cn([C@H]7CC[C@H](O)CC7)c7nc(NCCC(F)(F)F)ncc67)cc5)CC4)C3)cc21` [I-109, 3-(3-methyl-2-oxo-5-[[3-(2-[4-[(4-[7-[trans-4-hydroxycyclohexyl]-2-[(3,3,3-trifluoropropyl)amino]-7H-pyrrolo[2,3-d]pyrimidin-5-y1]phenyl)methyl]piperazin-1-yl]ethoxy)azetidin-1-yl]methyl]-2,3-dihydro-1H-1,3-benzodiazol-1-y1)piperidine-2,6-dione], the Dmax is less than 20%.

With `CN(C)c1cccc2c(S(=O)(=O)Nc3cccc(-c4cnc(NCCOCCN5CCN(Cc6ccc(-c7cn([C@H]8CC[C@H](O)CC8)c8nc(NCCC(F)(F)F)ncc78)cc6)CC5)nc4N4CCC(c5ccccc5)C4C(=O)O)c3)cccc12` (stereo partly drawn) [I-167, 1-(5-[3-[5-(Dimethylamino)naphthalene-1-sulfonamido]phenyl]-2-[[2-(2-[4-[(4-[7-[trans-4-hydroxycyclohexyl]-2-[(3,3,3-trifluoropropyl)amino]pyrrolo[2,3-d]pyrimidin-5-yl]phenyl)methyl]piperazin-1-yl]ethoxy)ethyl]amino]pyrimidin-4-yl)-3-phenylpyrrolidine-2-carboxylic acid], the Dmax was less than 20%.

As to `COC[C@H](C)Nc1ncc2c(-c3ccc(CN4CCN(CCOCCOCCOCCOCCNc5cccc6c5C(=O)N(C5CCC(=O)NC5=O)C6=O)CC4)cc3)cn([C@H]3CC[C@H](O)CC3)c2n1` (stereo partly drawn) [I-11, Trans-2-(2,6-dioxopiperidin-3-yl)-4-[15-(4-[[4-(2-[[(2S)-1-methoxypropan-2-yl]amino]-7-[4-hydroxycyclohexyl]-7H-pyrrolo[2,3-d]pyrimidin-5-yl)phenyl]methyl]piperazin-1-yl)-4,7,10,13-tetraoxa-1-azapentadecan-1-yl]-2,3-dihydro-1H-isoindole-1,3-dione], the Dmax was greater than 50%.

In the case of `Cn1c(=O)n([C@H]2CCC(=O)NC2=O)c2ccc(CCCN3CCC(C4CCN(Cc5ccc(-c6cn([C@H]7CC[C@H](O)CC7)c7nc(NCCC(F)(F)F)ncc67)cc5)CC4)CC3)cc21` [I-137, 3-[3-methyl-2-oxo-5-(3-[1-[(4-[7-[trans-4-hydroxycyclohexyl]-2-[(3,3,3-trifluoropropyl)amino]pyrrolo[2,3-d]pyrimidin-5-yl]phenyl)methyl]-[4,4-bipiperidin]-1-y1]propyl)-1,3-benzodiazol-1-yl]piperidine-2,6-dione], the Dmax was greater than 50%.

As for `Cc1ncsc1-c1ccc(CNC(=O)[C@@H]2C[C@@H](O)CN2C(=O)[C@@H](NC(=O)COCCOCCOCCOCCn2ccc3c(Nc4nc(N[C@@H]5CCCC[C@@H]5N)nnc4C(N)=O)cccc32)C(C)(C)C)cc1` [I-229], the Dmax was less than 20%.

Consider `Cn1c(=O)n([C@H]2CCC(=O)NC2=O)c2ccc(CCCOCCOCCN3CCN(Cc4ccc(-c5cn([C@H]6CC[C@H](O)CC6)c6nc(NCCC(F)(F)F)ncc56)cc4)CC3)cc21` [I-56, 3-(3-methyl-2-oxo-5-[3-[2-(2-[4-[(4-[7-[trans-4-hydroxycyclohexy1]-2-[(3,3,3-trifluoropropyl)amino]-7H-pyrrolo[2,3-d]pyrimidin-5-yl]phenyl)methyl]piperazin-1-yl]ethoxy)ethoxy]propyl]-2,3-dihydro-1H-1,3-benzodiazol-1-yl)piperidine-2,6-dione], for which the Dmax was greater than 50%.

Regarding `Cc1ncsc1-c1ccc(CNC(=O)[C@@H]2C[C@@H](O)CN2C(=O)[C@@H](NC(=O)COCCOCCOCCN2CCN(Cc3ccc(-c4cn([C@H]5CC[C@H](O)CC5)c5nc(NCCC(F)(F)F)ncc45)cc3)CC2)C(C)(C)C)cc1` [I-166, (2S,4R)-1-[(2S)-3,3-dimethyl-2-(2-[2-[2-(2-[4-[(4-[7-[trans-4-hydroxycyclohexyl]-2-[(3,3,3-trifluoropropyl)amino]pyrrolo[2,3-d]pyrimidin-5-yl]phenyl)methyl]piperazin-1-yl]ethoxy)ethoxy]ethoxy]acetamido)butanoyl]-4-hydroxy-N-[[4-(4-methyl-1,3-thiazol-5-yl)phenyl]methyl]pyrrolidine-2-carboxamide], the Dmax was greater than 50%.

Take `Cn1c(=O)n([C@H]2CCC(=O)NC2=O)c2ccc(CCCOCCCN3CCN(Cc4cccc(-c5cn([C@H]6CC[C@H](O)CC6)c6nc(NCCC(F)(F)F)ncc56)c4)CC3)cc21` [I-139, 3-[3-methyl-2-oxo-5-[3-(3-[4-[(3-[7-[trans-4-hydroxycyclohexyl]-2-[(3,3,3-trifluoropropyl)amino]pyrrolo[2,3-d]pyrimidin-5-yl]phenyl)methyl]piperazin-1-yl]propoxy)propy1]-1,3-benzodiazol-1-yl]piperidine-2,6-dione]: the Dmax is greater than 50%.

The record behind these values is patent publication US20260042762A1 (Kymera Therapeutics, Inc., priority 2018, published 2026).
